The source of these data is patent US20220296618A1, “ANTI-INFLAMMATORY COMPOUNDS FOR USE IN THE TREATMENT OF DERMAL DISORDERS” (COUNCIL OF SCIENTIFIC & INDUSTRIAL RESEARCH, priority 2019, published 2022).

In experiment [1] the test system is mice skin tissues. As to the kind of experiment: Tensile strength of skin tissues on day 8 after treatment for 7 days. The experiment is classed as in vivo. As to the method: Method: Fresh mice skin was treated once daily and stretched between the two ends of the tensile machine with a load of 100 kg with a stretching speed of 5 mm/min. (FIG. 9).
Experiment [2] relates to IMQ-induced psoriasis in Balb/c mice. As to the kind of experiment: IMQ-induced psoriasis in Balb/c mice, PASI scoring. The experiment is classed as in vivo. The settings on record: topical 12 h after IMQ, day 1 to 6. As to the method:
(§1) The effect of topical administration of Compound 1 for the treatment of psoriasis was tested in this animal study. In this study, typical features of psoriasis, namely erythema, scaling, and skin thickness, were induced by the application of 5% w/w imiquimod (IMQ) cream on the dorsal skin of Balb/c mice over a period of 6 consecutive days. Animals that developed psoriasis-like symptoms were used for studying the efficacy of the Compound 1 prepared in a vehicle (as described above). In this study, male Balb/c mice (aged 6 to 8 weeks) were used. The animals were divided into 8 groups consisting of 10 animals in each group as follows:
Animals in this group were topically treated with 62.5 mg of commercially available imiquimod cream (5%) on the shaved back for 6 consecutive days (day 1 to 6 of study) at a specific time in the morning. This negative control group represents the typical psoriatic model induced by imiquimod 5% (IMQ). […]
Psoriatic area and severity index (PASI) scoring was analyzed to determine the efficacy of compositions containing a Compound 1 with appropriate controls as part of the study. The severity of inflammation of the skin was evaluated by an objective scoring system based on the clinical PASI scores. Erythema (0-4) and scaling (0-4) were scored independently where, 0-none; 1-slight; 2-moderate; 3-marked; 4-very marked. […]

Experiment [3] deals with IL-23. As to the kind of experiment: IL-23 level in skin homogenate by ELISA, IMQ-induced psoriasis model. The note with it: day 7, ELISA. The experiment is classed as in vivo, Balb/c mice. As to the method: as §1
An IMQ-induced psoriasis model reproduces biochemical and histopathological parameters characteristic of human psoriatic lesions. Topical application of the IMQ cream increased levels of cytokines including IL-23 and IL-17 in the treated skin tissues. The animals were euthanized on day 7. Spleen, liver and skin tissues were collected from all the animals Spleen and liver tissues were weighed. IL-17 and IL-23 levels were measured by ELISA using a commercially available kit. The skin homogenates obtained from mice of different groups were analyzed using ELISA for quantification of IL-17 and IL-23 levels as the selected interleukins are the typical inflammatory markers of psoriasis.
On the technique in general: In an ELISA, binding on a coated surface is turned into a signal by an enzyme label.

For experiment [4], the system named is wound on the dorsal skin of non-diabetic C57 mice. As to the kind of experiment: Wound healing (1 cm^2 punch biopsy wound) in non-diabetic C57BL/6j mice, topical cream. The experiment is classed as in vivo. The note with it: topical once daily for 12 days; for Wound healing observed animals in a group: 5 animals in the group. From the text: Method: In this study, C57BL/6j mice strain (age: 12 weeks) were used for studying the wound healing process. A 1 cm^2 wound was made using a punch biopsy on the dorsal side of the C57 mice. The animals were divided into 5 groups consisting of 5 animals in each group as follows: • Group 6 (n=5): treated with vehicle alone (Non-Diabetic Control Group). • Group 7 (n=5) treated with Compound 2 (2.5%) prepared in the vehicle. • Group 8 (n=5): treated with Compound 1 (0.625%) prepared in the vehicle. • Group 9 (n=5) treated with Compound 1 (1.25%) prepared in the vehicle. • Group 10 (n=5) treated with Compound 1 (2.5%) prepared in the vehicle. Three concentrations of Compound 1, i.e. 0.625%, 1.25%, and 2.5%, prepared in the vehicle were tested in this study. The topical preparations were applied on the wound once daily for 12 days starting 12 hours after the wound was created. Images of the wound area were visualized, and measurements of area were recorded on each day of the study.

In experiment [5] the test system is surgical incisional wound in diabetic (db/db) mice. As to the kind of experiment: Incisional wound healing in diabetic (db/db) mice, with or without SIRT1 inhibitor EX-527. The note with it: Group 12, 0.625% in vehicle, topical once daily for 7 days. The experiment is classed as in vivo. From the text:
In this study, mice of db/db strain (age: 12 weeks) were used. The animals were divided into four groups: • Group 11: Mice control treated with the vehicle alone. • Group 12 Mice treated with Compound 1 (0.625%) prepared in the vehicle. • Group 13 Mice treated with Compound 1 (0.625%) and EX-527 (0.025%) in the • vehicle. • Group 14: Mice treated with EX-527 (0.025%) in the vehicle.
Para vertebral straight incisions of 2 cm length and 1 mm depth each were made through the entire thickness of the skin, on either side of the vertebral column with the help of a sharp scalpel. After complete haemostasis, the wound was closed by means of interrupted sutures placed at equidistance points about 1 cm apart (See FIG. 8) All the groups were treated once daily for 7 days with the respective test and control preparations. Images of the wound area were taken on each day of the study by photographs and Doppler imaging. The wound area was measured using a transparent tracing sheet before and during the treatment to measure the wound closure at every 4 day interval.

For experiment [6], the system named is surgical incision wound on rabbit skin. Nature of the experiment: Incisional wound healing in rabbit, topical cream. The note with it: 2.5% in vehicle. The experiment is classed as in vivo, New Zealand rabbits. From the text: In this study, New Zealand rabbits weighing between 2.0-2.5 kg body weight were used and divided into two groups;
Control Group: Treated with the vehicle alone.
Test Group: Treated with Compound 1 (2.5%) prepared in the vehicle.
Para vertebral straight incisions of 2 cm length each were made through the entire thickness of the skin on either side of the vertebral column with the help of a sharp scalpel. After complete haemostasis, the wound was closed by means of interrupted sutures placed at equidistance points about 1 cm apart (See FIG. 6). Animals were treated once daily from day 0 to day 14 post-wounding day. Images were taken daily during the study period. Sutures were removed on day 7 and observed for wound closure.

Experiment [7] deals with IMQ-induced psoriasis in Balb/c mice. As to the kind of experiment: Histopathology (H&E staining) of skin, IMQ-induced psoriasis model. The settings on record: 0.625% preparation; comparable to clobetasol propionate cream. The experiment is classed as in vivo. As to the method:
As a part of the efficacy study, a histopathology study was performed to study the morphological observations of the skin of mice representative of the different treatment groups. At the end of experiment, skin samples of mice from each group were fixed in 4% paraformaldehyde and embedded in paraffin. From each paraffin block, 4 μm thick sections were made and mounted on the glass slides. The sections were stained by haematoxylin and eosin and images were taken and evaluated.

Experiment [8] relates to wound on the dorsal skin of diabetic (db/db) mice. As to the kind of experiment: Diabetic wound healing (1 cm^2 punch biopsy wound) in db/db mice, topical cream. The settings on record: for Wound healing observed animals in a group on day 10 / % of Wound healing: topical once daily; for Wound healing observed animals in a group on day 10: 5 animals in the group; for % of Wound healing: day 10. The experiment is classed as in vivo. From the text: Method: In this study, mice of db/db strain (age: 13-14 weeks) were used as this strain is more analogous to diabetic wound healing in humans. A 1 cm^2 wound was made using a punch biopsy on the dorsal side of the db/db mice under local anesthetic conditions. The animals were divided into 5 groups with 5 animals in each group as follows: • Group 1 (n=5): treated with vehicle alone (Diabetic Control Group). • Group 2 (n=5) treated with Compound 2 (2.5%) prepared in the vehicle. • Group 3 (n=5): treated with Compound 1 (0.625%) prepared in the vehicle. • Group 4 (n=5) treated with Compound 1 (1.25%) prepared in the vehicle. • Group 5 (n=5) treated with Compound 1 (2.5%) prepared in the vehicle. Three concentrations of Compound 1, i.e. 0.625%, 1.25%, and 2.5%, were tested for this study. The topical preparations were applied on the wound once daily for 12 days. Images of the wound area were visualized, and measurements of the wound area were recorded on each day of the study.

Experiment [9] concerns hepatic enzyme markers ALT and AST. The note with it: intraperitoneally prior to treatment with t-butyl hydroperoxide; cited from earlier work.

As to `NC(=O)C1CCCc2c1[nH]c1ccc(Cl)cc21` (centres unmarked) [EX527, 6-chloro-2,3,4,9-tetrahydro-1H-carbazole-1-carboxamide, reference compound], the “Tensile strength (N)” value in experiment [1] (0.025%) is 6.03 ± 2.51 N.
As for `O=c1cc(CCCCCCCC[P+](c2ccccc2)(c2ccccc2)c2ccccc2)c2cc(O)c(O)cc2o1.[Br-]` [Compound 1], the “Tensile strength (N)” value in experiment [1] (0.625%) is listed as 55.33 ± 1.7 N. Also, the results for the “PASI scores over the treatment period” value in [2] (0.313% in vehicle) and in [2] (0.625% in vehicle) were “declines in PASI scores” and “better declines in PASI scores”, respectively. Further, the “IL-23 levels in skin tissue compared to the negative control” value in experiment [3] (0.313% in vehicle) and in experiment [3] (0.625% in vehicle) was “decline in IL-23 levels” throughout. In addition, the “% of Wound healing” value is reported as 90% in [4] (0.625% in vehicle cream); 90% in experiment [4] (1.25% in vehicle cream); 100% in experiment [4] (2.5% in vehicle cream); 100% in [8] (0.625% in vehicle cream); 90% in [8] (1.25% in vehicle cream); 90% in experiment [8] (2.5% in vehicle cream). The “Wound healing observed animals in a group” value in experiment [4] (0.625% in vehicle cream) turned out to be 4; in [4] (1.25% in vehicle cream), 4; in experiment [4] (2.5% in vehicle cream) it was 5. For the same molecule, the “Time to complete healing of the incisional wound” value in [5] was at most 7 days. The “Time of faster surgical wound healing versus Control Group” value in experiment [6] (topical once daily day 0 to day 14) is recorded as at most 8 days. For the same molecule, in experiment [6] (topical once daily, compared to Control Group), the Surgical scar entry is “No surgical scar was observed”. Besides, in [7], the “Histopathological amelioration of IMQ-induced psoriasis (skin and ear)” value was “ameliorated more”. In addition, the results for the “Wound healing observed animals in a group on day 10” value in experiment [8] (0.625% in vehicle cream), in experiment [8] (1.25% in vehicle cream) and in experiment [8] (2.5% in vehicle cream) were 5, 4 and 4, respectively. In addition, the “Day of complete closure of the wound” value in experiment [8] (Groups 3-5, 0.625%, 1.25% and 2.5% in vehicle, topical) is at most 10 days.
Consider `O=c1ccc2cc(O)c(O)cc2o1` [Compound 2, 6,7-dihydroxycoumarin, reference compound], for which the “Serum levels of hepatic enzyme markers ALT and AST” value in experiment [9] is on record as “lower serum levels”. Also, in experiment [4] (2.5% in vehicle cream), the “% of Wound healing” value was found to be 90% and the “Wound healing observed animals in a group” value is 4. Also, in experiment [8] (2.5% in vehicle cream), the “Wound healing observed animals in a group on day 10” value is given as 0 and the “% of Wound healing” value is given as 0%. Also, the “Day of wound closure” value in [8] (Group 2, 2.5% in vehicle, topical) is at most 26 days.
